Reference: patent US20210308196A1, “COMPOSITIONS AND METHODS TO PROMOTE HOST DEFENSE AND STIMULATE, EXPAND, AND/OR RESET T CELL REPERTOIRES” (EVOLVE BIOSYSTEMS, INC., priority 2018, published 2021)

Assay: Nutritional intervention study on autoimmune/allergic disease (T1D) in breastfed infants
Type: in vivo, human
Details: colonized infants
Description: Administration of activated B. infantis to breastfed neonates and infants leads consistently to high levels of B. infantis in the stool.
This is a randomized, double-blinded, placebo-controlled, parallel group study design (See FIG. 15). After the parent/guardian(s) sign the informed consent, infants will be screened for all the eligibility criteria, and if found eligible will be enrolled in the study. Eligible infants must first undergo an HLA genotyping from a cord blood sample collected at birth. Based on their HLA genotype they will be either placed in group 1 (low risk by HLA genotyping) and group 2 (high risk by HLA genotype). Each group will be randomly assigned to the placebo or treatment groups. […] Parent/guardian(s) of the infants will be instructed to maintain breastfeeding (at least 1 feed/day) for at least 6 months, and up to 12 months if possible during the treatment period. Following the 12-month treatment period, individuals will be followed at regular intervals with study visits and assessments. Individuals will be followed until a sufficient number of events (seroconversion to multiple (2) islet autoantibodies) are accumulated to achieve the planned power for the final analysis. […]

With “Bifidobacterium longum subsp. infantis EVC001 [B. infantis EVC001]” the “Rates of childhood-onset autoimmune and allergic disease” value was “decreases” and the TReg cell numbers was “increases”.
